{
  "source": "paper doi:10.1101/2025.07.04.663216",
  "about": "“A Computational Workflow for Structure-Guided Design of Potent and Selective Kinase Peptide Substrates” (bioRxiv, 2025)",
  "key": {"EGFR L858R": {"tested_on": "EGFR L858R", "assay": "ADP-Glo kinase assay, EGFR L858R", "format": "biochemical", "settings": "ADP-Glo luminescence; vs parent KEEIYFFF; enzyme 1.25–10 nM, ATP 10 μM, peptide 1 μM, 90 min, 25°C; repeated twice, mean", "from_the_text": "(§1) To experimentally evaluate the computationally optimized peptide sequences, we chose five kinases based on commercial availability. Using the ipAE, pLDDT, and ipTM scores, we ranked the Subtimizer-designed sequences, and for each kinase we selected two to five peptides for synthesis and experimental testing. We evaluated the activity of the peptides using the ADP-Glo kinase assay, a luminescence-based method that quantifies ADP production as a measure of kinase activity. First, we measured the ADP-Glo signals for the parental peptide and the baseline (no enzyme background) for the five kinases. […] The varying signal intensities across different kinases reflect differences in their specific activities and the efficiency of the parent peptide substrates.\n(§2) ADP-Glo Kit (ADP-Glo™ Kinase Assay, Cat#V6930) was obtained from Promega. The kinases ALK (#08–518), MET (#08–151), ROS1 (#08–163), and EGFR L858R (#08–502) were products of Carna Biosciences. SRC was expressed and purified as previously reported. Substrate peptides were obtained from Biomatik Corporation (Wilmington, DE, USA). All components were equilibrated to 25°C prior to setting up reactions in 384-well microplates (White ProxiPlate 384-shallow well Plus). […] Experiments were repeated twice with results expressed as mean ± standard deviation. Luminescence was detected on a Synergy Neo2 plate reader."}, "ROS1 [1]": {"molecular_target": "T1, ROS1 (Homo sapiens, UniProt P08922)", "T1 construct": "purchased Carna Biosciences 08–163", "assay": "ADP-Glo kinase assay, ROS1", "format": "biochemical", "settings": "ADP-Glo luminescence; vs parent EEPLYWSFPAK; enzyme 1.25–10 nM, ATP 10 μM, peptide 1 μM, 90 min, 25°C; repeated twice, mean", "from_the_text": "as §1, §2"}, "ROS1 [2]": {"molecular_target": "T1, ROS1", "assay": "LIMS-kinase assay kinetic analysis (Km), ROS1", "format": "biochemical", "settings": "for Km: LIMS-kinase, MS signal of ADP fragment, ATP 100 μM, peptide from 300–400 μM, 2- or 3-fold dilutions, 25°C, Michaelis-Menten fit, repeated twice", "from_the_text": "(§3) Figures 3A and 3B illustrate the schematic of a kinase assay reaction and the multiple reaction monitoring (MRM) phosphorylation detection system employed in the LIMS-kinase assay. The MRM setup comprises a RapidFire liquid chromatography sampler (Agilent) coupled to a triple quadrupole mass spectrometer (AB Sciex 6500). Quadrupole 1 (Q1) acts as a mass filter, selecting precursor ions based on their mass-to-charge ratios. Q2 functions as a collision cell, fragmenting these precursor ions into product ions. Q3 serves as an additional mass filter, specifically monitoring desired product ion fragments originating from the Q1-selected parent ion (Figure 3B).\n(§4) To determine kinase activity, we directly measured ADP production by following specific ADP ion fragments rather than quantifying phosphorylated peptide fragments as in our original published LIMS-kinase assay. We chose to measure ADP production rather than the phosphorylated peptide product to avoid potential variations in ionization efficiency or fragmentation patterns that can arise from differences in amino acid sequences and physicochemical properties of different peptide substrates. This ensures not only a more direct and unbiased comparison of potency across different peptides, but also broad applicability of optimized substrates across different assay platforms. Initial tests confirmed that we were able to selectively detect an ADP fragment in kinase/peptide reactions (Figure S5). The ADP signal was enzyme concentration- and time-dependent, consistent with the expected response of a functional assay. […] We evaluated two enzyme concentrations with the objective of selecting the concentration where activity was linear to 60 minutes with a strong signal (Figure S5). […]\n(§5) Final working concentrations of enzyme varied by kinase. […] Activity was evaluated by measuring MS signal of ADP-specific fragment ion. Experiments were repeated twice, with results expressed as mean ± standard deviation.\n(§6) Km was evaluated by linear regression of the first three time-points at each concentration of peptide. […]"}, "MET [3]": {"molecular_target": "T2, MET (Homo sapiens, UniProt P08581)", "T2 construct": "purchased Carna Biosciences 08–151", "T2 sequence (P08581 25-1390)": "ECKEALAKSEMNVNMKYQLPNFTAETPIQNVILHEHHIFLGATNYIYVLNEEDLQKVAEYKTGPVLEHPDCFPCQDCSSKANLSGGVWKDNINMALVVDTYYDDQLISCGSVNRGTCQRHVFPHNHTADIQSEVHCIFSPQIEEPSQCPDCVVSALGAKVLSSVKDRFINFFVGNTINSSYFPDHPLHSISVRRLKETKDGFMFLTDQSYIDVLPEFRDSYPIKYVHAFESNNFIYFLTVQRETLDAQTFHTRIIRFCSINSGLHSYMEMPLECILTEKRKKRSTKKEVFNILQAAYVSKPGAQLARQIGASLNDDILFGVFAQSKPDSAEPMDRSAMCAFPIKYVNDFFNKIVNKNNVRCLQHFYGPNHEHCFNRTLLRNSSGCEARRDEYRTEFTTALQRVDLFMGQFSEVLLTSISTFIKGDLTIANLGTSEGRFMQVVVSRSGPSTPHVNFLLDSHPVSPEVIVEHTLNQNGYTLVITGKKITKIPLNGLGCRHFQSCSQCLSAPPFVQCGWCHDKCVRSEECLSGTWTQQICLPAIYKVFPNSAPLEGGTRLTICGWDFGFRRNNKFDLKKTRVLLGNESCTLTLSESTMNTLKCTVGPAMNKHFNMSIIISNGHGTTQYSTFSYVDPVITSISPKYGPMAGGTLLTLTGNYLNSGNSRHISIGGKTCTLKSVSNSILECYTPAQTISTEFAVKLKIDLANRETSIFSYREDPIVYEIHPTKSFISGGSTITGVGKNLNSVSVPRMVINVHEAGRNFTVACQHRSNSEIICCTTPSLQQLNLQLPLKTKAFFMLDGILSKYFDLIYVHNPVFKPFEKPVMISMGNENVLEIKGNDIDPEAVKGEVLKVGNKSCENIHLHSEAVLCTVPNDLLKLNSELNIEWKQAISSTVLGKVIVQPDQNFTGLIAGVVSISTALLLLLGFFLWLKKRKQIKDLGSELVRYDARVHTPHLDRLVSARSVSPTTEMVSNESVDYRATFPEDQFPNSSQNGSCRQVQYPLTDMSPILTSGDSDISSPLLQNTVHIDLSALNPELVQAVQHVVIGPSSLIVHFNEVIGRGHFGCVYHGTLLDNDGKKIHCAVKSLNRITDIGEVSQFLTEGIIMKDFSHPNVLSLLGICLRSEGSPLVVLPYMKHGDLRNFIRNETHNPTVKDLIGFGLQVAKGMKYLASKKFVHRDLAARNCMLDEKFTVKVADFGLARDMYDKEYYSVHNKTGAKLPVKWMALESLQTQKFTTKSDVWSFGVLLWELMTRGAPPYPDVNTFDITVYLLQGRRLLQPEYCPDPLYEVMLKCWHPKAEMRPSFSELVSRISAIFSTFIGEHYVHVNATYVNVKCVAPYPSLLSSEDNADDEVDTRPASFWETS", "assay": "Peptide selectivity assay (LIMS-kinase), MET", "format": "biochemical", "settings": "LIMS-kinase ADP production; MET 5 nM, peptides 134 μM, ATP 100 μM, 30 min, room temperature; repeated twice", "method": "(§7) All components equilibrated to 25°C prior to setting up reactions. All reagents added manually. Peptides added to 384-well microplates (Costar 3657 round bottom polypropylene). A pre-mixed buffer, enzyme, and ATP solution was added to initiate reaction. Reaction was quenched with 1% formic acid (final) following 30-minute incubation at room temperature. Kinase activity was evaluated by measuring MS signal of ADP-specific fragment ion. Experiments were repeated twice, with results expressed as mean ± standard deviation. Time 0 (background) values were subtracted from subsequent time-points.\n(§8) RapidFire liquid chromatography and mass spectrometry methods were performed as previously described."}, "MET [4]": {"molecular_target": "T2, MET", "assay": "LIMS-kinase assay kinetic analysis (Km), MET", "format": "biochemical", "settings": "for Km: LIMS-kinase, MS signal of ADP fragment, ATP 100 μM, peptide from 300–400 μM, 2- or 3-fold dilutions, 25°C, Michaelis-Menten fit, repeated twice", "from_the_text": "as §3, §4, §5, §6"}, "ALK [5]": {"molecular_target": "T3, ALK (Homo sapiens, UniProt Q9UM73)", "T3 construct": "purchased Carna Biosciences 08–518", "T3 sequence (Q9UM73 19-1620)": "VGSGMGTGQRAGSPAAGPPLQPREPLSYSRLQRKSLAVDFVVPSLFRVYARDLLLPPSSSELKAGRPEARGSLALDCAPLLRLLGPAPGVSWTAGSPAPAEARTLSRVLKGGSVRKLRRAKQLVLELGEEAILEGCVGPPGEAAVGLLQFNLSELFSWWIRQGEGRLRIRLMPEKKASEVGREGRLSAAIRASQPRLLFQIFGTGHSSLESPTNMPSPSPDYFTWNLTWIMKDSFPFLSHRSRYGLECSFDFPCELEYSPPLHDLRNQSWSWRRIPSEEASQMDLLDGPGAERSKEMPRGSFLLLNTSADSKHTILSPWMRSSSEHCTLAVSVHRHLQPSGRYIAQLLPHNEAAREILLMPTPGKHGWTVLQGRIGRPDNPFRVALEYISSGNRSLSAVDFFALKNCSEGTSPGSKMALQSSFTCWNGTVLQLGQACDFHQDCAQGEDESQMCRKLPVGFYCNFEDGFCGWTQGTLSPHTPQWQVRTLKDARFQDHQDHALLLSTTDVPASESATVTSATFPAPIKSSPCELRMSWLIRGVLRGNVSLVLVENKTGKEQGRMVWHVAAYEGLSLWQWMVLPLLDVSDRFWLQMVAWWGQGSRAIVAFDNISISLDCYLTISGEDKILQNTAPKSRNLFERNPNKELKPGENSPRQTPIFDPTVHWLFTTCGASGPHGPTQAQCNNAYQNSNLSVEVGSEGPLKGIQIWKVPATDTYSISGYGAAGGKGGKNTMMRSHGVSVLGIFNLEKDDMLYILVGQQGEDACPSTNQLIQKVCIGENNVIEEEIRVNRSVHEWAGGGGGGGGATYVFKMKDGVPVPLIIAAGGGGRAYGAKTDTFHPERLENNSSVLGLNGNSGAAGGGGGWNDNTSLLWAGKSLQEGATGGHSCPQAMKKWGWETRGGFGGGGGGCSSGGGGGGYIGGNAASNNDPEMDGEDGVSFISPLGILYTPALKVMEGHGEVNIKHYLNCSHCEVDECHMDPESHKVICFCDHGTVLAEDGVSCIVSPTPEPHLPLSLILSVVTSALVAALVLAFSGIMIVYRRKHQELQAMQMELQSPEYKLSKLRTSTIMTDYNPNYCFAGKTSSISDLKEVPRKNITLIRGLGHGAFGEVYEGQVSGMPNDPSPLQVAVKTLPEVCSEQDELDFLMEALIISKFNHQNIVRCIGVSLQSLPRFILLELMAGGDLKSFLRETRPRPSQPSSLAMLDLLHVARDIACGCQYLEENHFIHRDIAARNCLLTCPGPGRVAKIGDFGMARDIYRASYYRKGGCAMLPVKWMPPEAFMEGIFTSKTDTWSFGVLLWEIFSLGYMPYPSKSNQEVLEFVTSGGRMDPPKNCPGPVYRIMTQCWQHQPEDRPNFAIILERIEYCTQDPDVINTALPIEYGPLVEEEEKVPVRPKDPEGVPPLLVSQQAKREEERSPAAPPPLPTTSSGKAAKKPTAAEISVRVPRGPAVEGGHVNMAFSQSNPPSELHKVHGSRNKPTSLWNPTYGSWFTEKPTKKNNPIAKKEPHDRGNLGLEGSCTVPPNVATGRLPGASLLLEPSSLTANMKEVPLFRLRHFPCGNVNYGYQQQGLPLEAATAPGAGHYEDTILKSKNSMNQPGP", "assay": "ADP-Glo kinase assay, ALK", "format": "biochemical", "settings": "ADP-Glo luminescence; vs parent KSRGDYMTMQIG (axltide); enzyme 1.25–10 nM, ATP 10 μM, peptide 1 μM, 90 min, 25°C; repeated twice, mean", "from_the_text": "as §1, §2"}, "ALK [6]": {"molecular_target": "T3, ALK", "assay": "LIMS-kinase assay kinetic analysis (Km), ALK", "format": "biochemical", "settings": "MS signal of ADP fragment, ATP 100 μM, peptide from 300–400 μM, 2- or 3-fold dilutions, 25°C, Michaelis-Menten fit, repeated twice", "from_the_text": "as §3\nTo determine kinase activity, we directly measured ADP production by following specific ADP ion fragments rather than quantifying phosphorylated peptide fragments as in our original published LIMS-kinase assay. […] We evaluated two enzyme concentrations with the objective of selecting the concentration where activity was linear to 60 minutes with a strong signal (Figure S5). […]\nas §5, §6"}, "MET [7]": {"molecular_target": "T2, MET", "assay": "ADP-Glo kinase assay, MET", "format": "biochemical", "settings": "ADP-Glo luminescence; vs parent EEPLYWSFPAK; enzyme 1.25–10 nM, ATP 10 μM, peptide 1 μM, 90 min, 25°C; repeated twice, mean", "from_the_text": "as §1, §2"}, "[8]": {"assay": "Peptide solubility observed in Km study", "format": "physicochemical", "settings": "observation in the Km study with EGFR L858R; peptide concentrations started at 300–400 μM", "from_the_text": "We ran LIMS-kinase assays using a range of peptide concentrations. We plotted the initial reaction rate for each concentration to generate Michaelis-Menten curves. […] We could not run a successful Km study with EGFR L858R due to the insolubility of the parental MS-csktide1 peptide at high concentrations, similar to our previous observation."}, "ROS1 [9]": {"molecular_target": "T1, ROS1", "assay": "Peptide selectivity assay (LIMS-kinase), ROS1", "format": "biochemical", "settings": "LIMS-kinase ADP production; ROS1 0.63 nM, peptides 20.3 μM, ATP 100 μM, 30 min, room temperature; repeated twice", "method": "as §7, §8"}},
  "data": [
    {"sequence": "EPEDYAPV [egfr-s1, designed EGFR L858R peptide substrate EPEDYAPV]", "values": [
      {"measurement": "relative percentage change (increase) in kinase activity compared to parent peptide", "setting": "EGFR L858R", "value": "about 10%"}
    ]},
    {"sequence": "KEPFYMRLKPK [ros1-s2]", "values": [
      {"measurement": "relative percentage change (increase) in kinase activity compared to parent peptide", "setting": "ROS1 [1]", "value": "about 35%"},
      {"measurement": "Km", "setting": "ROS1 [2]", "value": 20.3, "unit": "µM"},
      {"measurement": "improvement in apparent binding affinity (Km) vs parental MS-srctide", "setting": "ROS1 [2]; ROS1, Km 47.59 to 20.30 µM", "value": "> 2", "unit": "fold"},
      {"measurement": "reduction in MET kinase activity compared to met-s1", "setting": "MET [3]", "value": "over 4 fold"}
    ]},
    {"sequence": "EEPLYWSFPAK [MS-srctide, parental peptide substrate … for many kinases including MET and ROS1, reference compound]", "values": [
      {"measurement": "Km", "setting": "ROS1 [2]", "value": 47.6, "unit": "µM"},
      {"measurement": "Km", "setting": "MET [4]", "value": 288, "unit": "µM"}
    ]},
    {"sequence": "HSPEDYMWVEME [alk-s5, designed ALK peptide substrate …]", "values": [
      {"measurement": "relative percentage change (increase) in kinase activity compared to parent peptide", "setting": "ALK [5]", "value": 146, "unit": "%"}
    ]},
    {"sequence": "HDPEDYMWVEMR [alk-s3, designed ALK peptide substrate …]", "values": [
      {"measurement": "Km", "setting": "ALK [6]", "value": 14.1, "unit": "µM"}
    ]},
    {"sequence": "PDPDDYMLMEIG [alk-s4, designed ALK peptide substrate …]", "values": [
      {"measurement": "relative percentage change (increase) in kinase activity compared to parent peptide", "setting": "ALK [5]", "value": 130, "unit": "%"}
    ]},
    {"sequence": "KSRGDYMTMQIG [MS-axltide, parental peptide substrate … used for ALK, reference compound]", "values": [
      {"measurement": "Km", "setting": "ALK [6]", "value": 18.4, "unit": "µM"}
    ]},
    {"sequence": "EEPLYVALPAP [met-s2, designed MET peptide substrate …]", "values": [
      {"measurement": "relative percentage change (increase) in kinase activity compared to parent peptide", "setting": "MET [7]", "value": "~11", "unit": "%"}
    ]},
    {"sequence": "KEEIYFFF [MS-csktide1, parental peptide substrate KEEIYFFF used for EGFR L858R]", "values": [
      {"measurement": "solubility at high concentrations", "setting": "[8]", "value": "insolubility"}
    ]},
    {"sequence": "EPEGYAPL [egfr-s2]", "values": [
      {"measurement": "relative percentage change (increase) in kinase activity compared to parent peptide", "setting": "EGFR L858R", "value": "approximately 5%"}
    ]},
    {"sequence": "EEPAYVALPAK [met-s1]", "values": [
      {"measurement": "relative percentage change (increase) in kinase activity compared to parent peptide", "setting": "MET [7]", "value": "approximately 41%"},
      {"measurement": "Km", "setting": "MET [4]", "value": 134, "unit": "µM"},
      {"measurement": "reduction in Km vs parental MS-srctide", "setting": "MET [4]; MET, Km 288 to 134 µM", "value": "over 2 fold"},
      {"measurement": "reduction in ROS1 kinase activity compared to ros1-s2", "setting": "ROS1 [9]", "value": "over 11 fold"}
    ]}
  ]
}
